# Literature values as cited in patent US20210072238A1, “IMMOBILIZATION OF PROTEINS WITH CONTROLLED ORIENTATION AND LOAD” (Oregon State University, priority 2019, published 2021).
# Settings: ncAA incorporated in protein
smiles,measurement,value
"Cc1nnc(-c2ccc(C[C@H](N)C(=O)O)cc2)nn1 [Tet2.0, (S)-2-amino-3-(4-(6-methyl-1,2,4,5-tetrazin-3-yl)phenyl) propanoic acid]",second-order in proteo reaction rate with sTCO,"~72,000 M^−1 s^−1"
